T/C data for eleven compounds are collected here from PubChem BioAssay AID200 (DTP/NCI, 2004).

Values joined by “and” are separate entries in the source; they are usually repeats but may differ in a detail not shown here. Equal values may be shown once. Inconclusive results and toxic doses are left out.

The test relates to B6C3F1 mice, B16 melanoma ip, median survival T/C. Kind of test: NCI In Vivo Anticancer Drug Screen. Data for tumor model B16 Melanoma (intraperitoneal) in B6C3F1 mice. To be noted: endpoint: median survival time, higher = longer survival. Put shortly: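 Tumor-bearing mice received test compound; a separate group got vehicle only. Survival was then compared, with results reported as treated over control.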

[1] abbreviates: dose: 12.5 mg/kg/injection, schedule: Q01DX009 (ip), vehicle: saline with Tween-80.
Setting [2] is: dose: 25.0 mg/kg/injection, schedule: Q01DX009 (ip), vehicle: Klucel (hydroxypropylcellulose) (HPC).
Setting [3] is: dose: 25.0 mg/kg/injection, schedule: Q01DX009 (ip), vehicle: saline with Tween-80.
Where [4] appears, read: dose: 50.0 mg/kg/injection, schedule: Q01DX009 (ip), vehicle: saline with Tween-80.
[5] abbreviates: dose: 200.0 mg/kg/injection, schedule: Q01DX009 (ip), vehicle: Klucel (hydroxypropylcellulose) (HPC).
Setting [6] is: dose: 12.5 mg/kg/injection, schedule: Q01DX009 (ip), vehicle: saline.

`CC(=O)O[C@H]1C(=O)[C@@]2(C)[C@H]([C@H](OC(=O)c3ccccc3)[C@]3(O)C[C@H](OC(=O)[C@H](O)[C@@H](NC(=O)c4ccccc4)c4ccccc4)C(C)=C1C3(C)C)[C@]1(OC(C)=O)CO[C@@H]1C[C@@H]2O`: the T/C is 187 % of control (dose: 1.25 mg/kg/injection, schedule: Q01DX008 (ip), vehicle: Klucel (hydroxypropylcellulose) (HPC)); 155 % of control and 171 % of control (dose: 1.25 mg/kg/injection, schedule: Q01DX009 (ip), vehicle: Klucel (hydroxypropylcellulose) (HPC)); 213 % of control (dose: 1.88 mg/kg/injection, schedule: Q01DX009 (ip), vehicle: Klucel (hydroxypropylcellulose) (HPC)); 221 % of control (dose: 2.5 mg/kg/injection, schedule: Q01DX008 (ip), vehicle: Klucel (hydroxypropylcellulose) (HPC)); 225 % of control (dose: 3.75 mg/kg/injection, schedule: Q01DX009 (ip), vehicle: Klucel (hydroxypropylcellulose) (HPC)); 232 % of control (dose: 5.0 mg/kg/injection, schedule: Q01DX008 (ip), vehicle: Klucel (hydroxypropylcellulose) (HPC)). Moreover, the T/C by setting is: (dose: 6.25 mg/kg/injection, schedule: Q04DX003 (ip), vehicle: Klucel (hydroxypropylcellulose) (HPC)) 174 % of control and 186 % of control; (dose: 7.5 mg/kg/injection, schedule: Q01DX009 (ip), vehicle: Klucel (hydroxypropylcellulose) (HPC)) 327 % of control; (dose: 10.0 mg/kg/injection, schedule: Q01DX008 (ip), vehicle: Klucel (hydroxypropylcellulose) (HPC)) 112 % of control; (dose: 10.0 mg/kg/injection, schedule: Q01DX009 (ip), vehicle: other) 154 % of control and 175 % of control; (dose: 12.5 mg/kg/injection, schedule: Q04DX003 (ip), vehicle: Klucel (hydroxypropylcellulose) (HPC)) 201 % of control and 231 % of control; (dose: 20.0 mg/kg/injection, schedule: Q01DX008 (ip), vehicle: Klucel (hydroxypropylcellulose) (HPC)) 92 % of control. Moreover, the T/C by setting is: (dose: 25.0 mg/kg/injection, schedule: Q04DX003 (ip), vehicle: Klucel (hydroxypropylcellulose) (HPC)) 237 % of control and 254 % of control; (dose: 30.0 mg/kg/injection, schedule: Q01DX009 (ip), vehicle: Klucel (hydroxypropylcellulose) (HPC)) 89 % of control; (dose: 50.0 mg/kg/injection, schedule: Q04DX003 (ip), vehicle: Klucel (hydroxypropylcellulose) (HPC)) 169 % of control and 222 % of control; (dose: 100.0 mg/kg/injection, schedule: Q04DX003 (ip), vehicle: Klucel (hydroxypropylcellulose) (HPC)) 118 % of control.
With `O=Cc1ccccc1`, the T/C runs as follows: under setting [1], 101 % of control; under setting [2], 100 % of control; under setting [3], 99 % of control; (dose: 50.0 mg/kg/injection, schedule: Q01DX009 (ip), vehicle: Klucel (hydroxypropylcellulose) (HPC)) 105 % of control; under setting [4], 98 % of control; (dose: 50.0 mg/kg/injection, schedule: Q01DX009 (oral), vehicle: Klucel (hydroxypropylcellulose) (HPC)) 95 % of control. Further, the T/C is 98 % of control (dose: 100.0 mg/kg/injection, schedule: Q01DX009 (ip), vehicle: saline with Tween-80); 88 % of control (dose: 100.0 mg/kg/injection, schedule: Q01DX009 (oral), vehicle: Klucel (hydroxypropylcellulose) (HPC)); 86 % of control under setting [5]; 89 % of control (dose: 200.0 mg/kg/injection, schedule: Q01DX009 (ip), vehicle: saline with Tween-80); 98 % of control (dose: 200.0 mg/kg/injection, schedule: Q01DX009 (oral), vehicle: Klucel (hydroxypropylcellulose) (HPC)); 92 % of control (dose: 400.0 mg/kg/injection, schedule: Q01DX009 (ip), vehicle: Klucel (hydroxypropylcellulose) (HPC)). In addition, under “dose: 400.0 mg/kg/injection, schedule: Q01DX009 (oral), vehicle: Klucel (hydroxypropylcellulose) (HPC)”, the T/C is 105 % of control.
For the compound `COc1cccc2c1C(=O)c1c(O)c3c(c(O)c1C2=O)C[C@](O)(C(=O)CO)CC3OC1CC(N)C(OC2CCCCO2)C(C)O1` (some centres not stated), the T/C (dose: 1.5 mg/kg/injection, schedule: Q01DX009 (ip), vehicle: water) was 382 % of control; the T/C (dose: 1.56 mg/kg/injection, schedule: Q01DX001 (ip), vehicle: water) is 172 % of control; the T/C (dose: 3.12 mg/kg/injection, schedule: Q01DX001 (ip), vehicle: water) was 206 % of control and 218 % of control; the T/C (dose: 6.25 mg/kg/injection, schedule: Q01DX001 (ip), vehicle: water) was 222 % of control and 317 % of control; the T/C (dose: 12.5 mg/kg/injection, schedule: Q01DX001 (ip), vehicle: water) was 229 % of control and 264 % of control.
With `Nc1ccc(Cn2ccc3c4c(N)nc(N)nc4ccc32)cc1`, the T/C was 95 % of control and 100 % of control (dose: 1.25 mg/kg/injection, schedule: Q01DX009 (ip), vehicle: saline with Tween-80); 110 % of control and 99 % of control (dose: 2.5 mg/kg/injection, schedule: Q01DX009 (ip), vehicle: saline with Tween-80); 99 % of control and 105 % of control (dose: 5.0 mg/kg/injection, schedule: Q01DX009 (ip), vehicle: saline with Tween-80); 111 % of control and 119 % of control (dose: 10.0 mg/kg/injection, schedule: Q01DX009 (ip), vehicle: saline with Tween-80).
On to `CCN(CC)CCOC(=O)Cc1cccc2c(=O)cc(-c3ccccc3)oc12`, for which the T/C by setting is: under setting [6], 97 % of control and 103 % of control; (dose: 25.0 mg/kg/injection, schedule: Q01DX009 (ip), vehicle: saline) 115 % of control and 101 % of control; (dose: 50.0 mg/kg/injection, schedule: Q01DX009 (ip), vehicle: saline) 109 % of control and 99 % of control.
For `NC(=O)c1[nH]nc(C2OC(CO)C(O)C2O)c1O` (configuration not stated), the T/C is, setting by setting: (dose: 0.13 mg/kg/injection, schedule: Q01DX009 (ip), vehicle: saline) 106 % of control; (dose: 0.25 mg/kg/injection, schedule: Q01DX009 (ip), vehicle: saline) 103 % of control; (dose: 0.5 mg/kg/injection, schedule: Q01DX009 (ip), vehicle: saline) 111 % of control; (dose: 1.0 mg/kg/injection, schedule: Q01DX009 (ip), vehicle: saline) 118 % of control.
In the case of `Cc1oc2c(C)c3oc(=O)cc(C)c3cc2c1CCl`, the T/C was 91 % of control and 97 % of control under setting [1]; 87 % of control and 88 % of control (2×) under setting [3]; 102 % of control under setting [4].
For the compound `CCC(C)n1ncc2c(N(C)C)ncnc21` (configuration not stated), the T/C reads like this: (dose: 3.12 mg/kg/injection, schedule: Q01DX009 (ip), vehicle: saline) 98 % of control; (dose: 6.25 mg/kg/injection, schedule: Q01DX009 (ip), vehicle: saline) 95 % of control; under setting [6], 95 % of control.
Consider `CCC(C)C(NC(=O)OCC1c2ccccc2-c2ccccc21)C(=O)O` (configuration not stated), for which the T/C was 101 % of control and 102 % of control (dose: 100.0 mg/kg/injection, schedule: Q01DX009 (ip), vehicle: Klucel (hydroxypropylcellulose) (HPC)); 98 % of control and 100 % of control under setting [5].
On to `CCCCc1ccc(-n2c(C)c(COC(=O)NC)c(COC(=O)NC)c2C)cc1`, for which the T/C (dose: 6.25 mg/kg/injection, schedule: Q01DX009 (ip), vehicle: Klucel (hydroxypropylcellulose) (HPC)) is 170 % of control; the T/C (dose: 12.5 mg/kg/injection, schedule: Q01DX009 (ip), vehicle: Klucel (hydroxypropylcellulose) (HPC)) was 174 % of control; the T/C under setting [2] was 169 % of control.
As for `CC[C@@]1(O)C[C@H](OC2CC(N(C)C)C(OC3CC(O)C(O[C@@H]4O[C@@H](C)C(=O)C=C4N)C(C)O3)C(C)O2)c2c(cc3c(c2O)C(=O)c2c(O)ccc(O)c2C3=O)[C@H]1C(=O)OC` (some centres not stated), the T/C is 102 % of control (dose: 0.02 mg/kg/injection, schedule: Q01DX001 (ip), vehicle: suspension in saline); 111 % of control (dose: 0.05 mg/kg/injection, schedule: Q01DX001 (ip), vehicle: suspension in saline); 111 % of control (dose: 0.1 mg/kg/injection, schedule: Q01DX001 (ip), vehicle: suspension in saline); 121 % of control (dose: 0.19 mg/kg/injection, schedule: Q01DX009 (ip), vehicle: saline); 116 % of control (dose: 0.2 mg/kg/injection, schedule: Q01DX001 (ip), vehicle: suspension in saline); 121 % of control (dose: 0.4 mg/kg/injection, schedule: Q01DX001 (ip), vehicle: suspension in saline). Moreover, the T/C runs as follows: (dose: 0.75 mg/kg/injection, schedule: Q01DX009 (ip), vehicle: saline) 153 % of control; (dose: 0.8 mg/kg/injection, schedule: Q01DX001 (ip), vehicle: suspension in saline) 121 % of control; (dose: 1.5 mg/kg/injection, schedule: Q01DX009 (ip), vehicle: saline) 173 % of control; (dose: 3.0 mg/kg/injection, schedule: Q01DX009 (ip), vehicle: saline) 179 % of control; (dose: 3.2 mg/kg/injection, schedule: Q01DX001 (ip), vehicle: suspension in saline) 152 % of control.
